Test results from US20230085307A1, “PYRIDAZINONE COMPOUND AND HERBICIDE” (NISSAN CHEMICAL CORPORATION, priority 2019, published 2023).

Legend:
Italian ryegrass [1] = test: Test Example 5: herbicidal effect by foliage application, plastic box (Table 20, symbol K); format: in vivo, Italian ryegrass (Lolium multiflorum); details: foliage application, 320 g/ha, evaluated three weeks after application
Outline: (§1)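 Plants were sown into sterilized diluvial soil under about 1.5 cm cover and kept in a greenhouse at 25° C. to 30° C. Fourteen days on, foliage received an even spray of the diluted emulsion. Herbicidal or crop effect was judged three weeks afterwards.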

blackgrass [2] = test: Test Example 5: herbicidal effect by foliage application, plastic box (Table 20, symbol J); format: in vivo, blackgrass (Alopecurus myosuroides); details: foliage application, 320 g/ha, evaluated three weeks after application
Outline: as §1

barnyard grass [3] = test: Test Example 4: herbicidal effect by soil treatment (Table 19, symbol H); format: in vivo, barnyard grass (Echinochloa crus-galli); details: 320 g/ha
Outline: (§2)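 In this soil treatment, the formulated compound reached the seeds only through the soil: seeds were buried about 1.5 cm deep in sterilized diluvial soil, then the diluted emulsion was sprayed over the surface. After three weeks at 25° C. to 30° C. in a greenhouse, effects were graded on criteria from an earlier test.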

green foxtail [4] = test: Test Example 4: herbicidal effect by soil treatment (Table 19, symbol G); format: in vivo, green foxtail (Setaria viridis); details: 320 g/ha
Outline: as §2

lambsquarters [5] = test: Test Example 5: herbicidal effect by foliage application, plastic box (Table 20, symbol O); format: in vivo, lambsquarters (Chenopodium album); details: foliage application, 320 g/ha, evaluated three weeks after application
Outline: as §1

blackgrass [6] = test: Test Example 4: herbicidal effect by soil treatment (Table 19, symbol J); format: in vivo, blackgrass (Alopecurus myosuroides); details: 320 g/ha
Outline: as §2

southern crabgrass [7] = test: Test Example 4: herbicidal effect by soil treatment (Table 19, symbol F); format: in vivo, southern crabgrass (Digitaria ciliaris); details: 320 g/ha
Outline: as §2

windgrass [8] = test: Test Example 4: herbicidal effect by soil treatment (Table 19, symbol L); format: in vivo, windgrass (Apera spica-venti); details: 320 g/ha
Outline: as §2

Italian ryegrass [9] = test: Test Example 4: herbicidal effect by soil treatment (Table 19, symbol K); format: in vivo, Italian ryegrass (Lolium multiflorum); details: 320 g/ha
Outline: as §2

chickweed [10] = test: Test Example 5: herbicidal effect by foliage application, plastic box (Table 20, symbol P); format: in vivo, common chickweed (Stellaria media); details: foliage application, 320 g/ha, evaluated three weeks after application
Outline: as §1

windgrass [11] = test: Test Example 5: herbicidal effect by foliage application, plastic box (Table 20, symbol L); format: in vivo, windgrass (Apera spica-venti); details: foliage application, 320 g/ha, evaluated three weeks after application
Outline: as §1

barnyard grass [12] = test: Test Example 3: herbicidal effect by foliage application, Wagner pot (Table 18, symbol H); format: in vivo, barnyard grass (Echinochloa crus-galli); details: 320 g/ha
Outline: (§3)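 Plants were sown in alluvial soil held under 0.1–0.5 cm standing water and grown 14 days in a greenhouse at 25–30 °C. An emulsifiable formulation, water-diluted to the set dose, was then sprayed onto the foliage, and effects were scored three weeks later using previously defined criteria.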

Chinese sprangletop = test: Test Example 3: herbicidal effect by foliage application, Wagner pot (Table 18, symbol D); format: in vivo, chinese sprangletop (Leptochloa chinensis); details: 320 g/ha
Outline: as §3

late watergrass = test: Test Example 1: herbicidal activity, application before weed generation under submerged conditions (Table 16, symbol A); format: in vivo, late watergrass (Echinochloa oryzicola); details: 320 g/ha applied herbicide
Outline: (§4)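 Submerged Wagner pots (alluvial soil, 4 cm water) sown with weed seeds and planted with 2.5-leaf rice seedlings; emulsifiable concentrate diluted in water applied to water surface on sowing day. Held in greenhouse at 25-30 °C; injury scored 0-5 by herbicidal rate after three weeks.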

wild oat [13] = test: Test Example 5: herbicidal effect by foliage application, plastic box (Table 20, symbol I); format: in vivo, wild oat (Avena fatua); details: foliage application, 320 g/ha, evaluated three weeks after application
Outline: as §1

persian speedwell [14] = test: Test Example 4: herbicidal effect by soil treatment (Table 19, symbol R); format: in vivo, Persian speedwell (Veronica persica); details: 320 g/ha
Outline: as §2

persian speedwell [15] = test: Test Example 5: herbicidal effect by foliage application, plastic box (Table 20, symbol R); format: in vivo, Persian speedwell (Veronica persica); details: foliage application, 320 g/ha, evaluated three weeks after application
Outline: as §1

Japanese bulrush = test: Test Example 1: herbicidal activity, application before weed generation under submerged conditions (Table 16, symbol B); format: in vivo, Japanese bulrush (Schoenoplectus juncoides); details: 320 g/ha applied herbicide
Outline: as §4

barnyard grass [16] = test: Test Example 5: herbicidal effect by foliage application, plastic box (Table 20, symbol H); format: in vivo, barnyard grass (Echinochloa crus-galli); details: foliage application, 320 g/ha, evaluated three weeks after application
Outline: as §1

rice flat sedge = test: Test Example 3: herbicidal effect by foliage application, Wagner pot (Table 18, symbol E); format: in vivo, rice flat sedge (Cyperus iria); details: 320 g/ha
Outline: as §3

lambsquarters [17] = test: Test Example 4: herbicidal effect by soil treatment (Table 19, symbol O); format: in vivo, lambsquarters (Chenopodium album); details: 320 g/ha
Outline: as §2

chickweed [18] = test: Test Example 4: herbicidal effect by soil treatment (Table 19, symbol P); format: in vivo, common chickweed (Stellaria media); details: 320 g/ha
Outline: as §2

velvetleaf [19] = test: Test Example 4: herbicidal effect by soil treatment (Table 19, symbol M); format: in vivo, velvetleaf (Abutilon theophrasti); details: 320 g/ha
Outline: as §2

southern crabgrass [20] = test: Test Example 5: herbicidal effect by foliage application, plastic box (Table 20, symbol F); format: in vivo, southern crabgrass (Digitaria ciliaris); details: foliage application, 320 g/ha, evaluated three weeks after application
Outline: as §1

green foxtail [21] = test: Test Example 5: herbicidal effect by foliage application, plastic box (Table 20, symbol G); format: in vivo, green foxtail (Setaria viridis); details: foliage application, 320 g/ha, evaluated three weeks after application
Outline: as §1

oval-leafed pondweed = test: Test Example 1: herbicidal activity, application before weed generation under submerged conditions (Table 16, symbol C); format: in vivo, oval-leafed pondweed (Monochoria vaginalis); details: 320 g/ha applied herbicide
Outline: as §4

redroot pigweed [22] = test: Test Example 4: herbicidal effect by soil treatment (Table 19, symbol N); format: in vivo, redroot pigweed (Amaranthus retroflexus); details: 320 g/ha
Outline: as §2

redroot pigweed [23] = test: Test Example 5: herbicidal effect by foliage application, plastic box (Table 20, symbol N); format: in vivo, redroot pigweed (Amaranthus retroflexus); details: foliage application, 320 g/ha, evaluated three weeks after application
Outline: as §1

wild oat [24] = test: Test Example 4: herbicidal effect by soil treatment (Table 19, symbol I); format: in vivo, wild oat (Avena fatua); details: 320 g/ha
Outline: as §2

velvetleaf [25] = test: Test Example 5: herbicidal effect by foliage application, plastic box (Table 20, symbol M); format: in vivo, velvetleaf (Abutilon theophrasti); details: foliage application, 320 g/ha, evaluated three weeks after application
Outline: as §1

Row | Structure (SMILES) | herbicidal effect on K: Italian ryegrass (Italian ryegrass [1]) | herbicidal effect on J: blackgrass (blackgrass [2]) | herbicidal effect rating, H: barnyard grass (barnyard grass [3]) | herbicidal effect rating, G: green foxtail (green foxtail [4]) | herbicidal effect on O: lambsquarters (lambsquarters [5]) | herbicidal effect rating, J: blackgrass (blackgrass [6]) | herbicidal effect rating, F: southern crabgrass (southern crabgrass [7]) | herbicidal effect rating, L: windgrass (windgrass [8]) | herbicidal effect rating, K: Italian ryegrass (Italian ryegrass [9]) | herbicidal effect on P: chickweed (chickweed [10]) | herbicidal effect on L: windgrass (windgrass [11]) | herbicidal effect on H (barnyard grass), rating 0-5 (barnyard grass [12]) | herbicidal effect on D (Chinese sprangletop), rating 0-5 (Chinese sprangletop) | Herbicidal effect on A: late watergrass (grade 0-5) (late watergrass) | herbicidal effect on I: wild oat (wild oat [13]) | herbicidal effect rating, R: persian speedwell (persian speedwell [14]) | herbicidal effect on R: persian speedwell (persian speedwell [15]) | Herbicidal effect on B: Japanese bulrush (grade 0-5) (Japanese bulrush) | herbicidal effect on H: barnyard grass (barnyard grass [16]) | herbicidal effect on E (rice flat sedge), rating 0-5 (rice flat sedge) | further results
1 | CSCCOc1ccc(-c2sc3ccc(F)cc3c2-c2c(O)c(C)nn(C)c2=O)cc1 [2-058] | 5 (Herbicidal rate of 90% or more (almost completely withered)) | 5 (Herbicidal rate of 90% or more (almost completely withered)) | 1 (Herbicidal rate of 5% or more and less than 20%) | 4 (Herbicidal rate of 70% or more and less than 90%) | 5 (Herbicidal rate of 90% or more (almost completely withered)) | 5 (Herbicidal rate of 90% or more (almost completely withered)) | 5 (Herbicidal rate of 90% or more (almost completely withered)) | 4 (Herbicidal rate of 70% or more and less than 90%) | 4 (Herbicidal rate of 70% or more and less than 90%) | 5 (Herbicidal rate of 90% or more (almost completely withered)) | 5 (Herbicidal rate of 90% or more (almost completely withered)) | 5 (Herbicidal rate of 90% or more (almost completely withered)) | 5 (Herbicidal rate of 90% or more (almost completely withered)) | 0 (Herbicidal rate of 5% or less (almost no effect)) | 5 (Herbicidal rate of 90% or more (almost completely withered)) | 4 (Herbicidal rate of 70% or more and less than 90%) | 5 (Herbicidal rate of 90% or more (almost completely withered)) | 2 (Herbicidal rate of 20% or more and less than 40%) | 5 (Herbicidal rate of 90% or more (almost completely withered)) | 5 (Herbicidal rate of 90% or more (almost completely withered)) | herbicidal effect rating, O: lambsquarters (lambsquarters [17]): 5 (Herbicidal rate of 90% or more (almost completely withered)); herbicidal effect rating, P: chickweed (chickweed [18]): 3 (Herbicidal rate of 40% or more and less than 70%); herbicidal effect rating, M: velvetleaf (velvetleaf [19]): 3 (Herbicidal rate of 40% or more and less than 70%); herbicidal effect on F: southern crabgrass (southern crabgrass [20]): 5 (Herbicidal rate of 90% or more (almost completely withered)); herbicidal effect on G: green foxtail (green foxtail [21]): 5 (Herbicidal rate of 90% or more (almost completely withered)); Herbicidal effect on C: oval-leafed pondweed (grade 0-5) (oval-leafed pondweed): 0 (Herbicidal rate of 5% or less (almost no effect)); herbicidal effect rating, N: redroot pigweed (redroot pigweed [22]): 5 (Herbicidal rate of 90% or more (almost completely withered)); herbicidal effect on N: redroot pigweed (redroot pigweed [23]): 5 (Herbicidal rate of 90% or more (almost completely withered)); herbicidal effect rating, I: wild oat (wild oat [24]): 0 (Herbicidal rate of 5% or less (almost no effect)); herbicidal effect on M: velvetleaf (velvetleaf [25]): 5 (Herbicidal rate of 90% or more (almost completely withered))
2 | Cc1nn(C)c(=O)c(-c2c(-c3ccc(Cl)c(Cl)c3)sc3ccc(F)cc23)c1O [2-081] | 5 (Herbicidal rate of 90% or more (almost completely withered)) | 2 (Herbicidal rate of 20% or more and less than 40%) | 0 (Herbicidal rate of 5% or less (almost no effect)) | 0 (Herbicidal rate of 5% or less (almost no effect)) | 5 (Herbicidal rate of 90% or more (almost completely withered)) | 0 (Herbicidal rate of 5% or less (almost no effect)) | 0 (Herbicidal rate of 5% or less (almost no effect)) | 0 (Herbicidal rate of 5% or less (almost no effect)) | 4 (Herbicidal rate of 70% or more and less than 90%) | 5 (Herbicidal rate of 90% or more (almost completely withered)) | 5 (Herbicidal rate of 90% or more (almost completely withered)) | 5 (Herbicidal rate of 90% or more (almost completely withered)) | 3 (Herbicidal rate of 40% or more and less than 70%) | 4 (Herbicidal rate of 70% or more and less than 90%) | 4 (Herbicidal rate of 70% or more and less than 90%) | 4 (Herbicidal rate of 70% or more and less than 90%) | 5 (Herbicidal rate of 90% or more (almost completely withered)) | 2 (Herbicidal rate of 20% or more and less than 40%) | 5 (Herbicidal rate of 90% or more (almost completely withered)) | 5 (Herbicidal rate of 90% or more (almost completely withered)) | herbicidal effect rating, O: lambsquarters (lambsquarters [17]): 4 (Herbicidal rate of 70% or more and less than 90%); herbicidal effect rating, P: chickweed (chickweed [18]): 3 (Herbicidal rate of 40% or more and less than 70%); herbicidal effect rating, M: velvetleaf (velvetleaf [19]): 3 (Herbicidal rate of 40% or more and less than 70%); herbicidal effect on F: southern crabgrass (southern crabgrass [20]): 4 (Herbicidal rate of 70% or more and less than 90%); herbicidal effect on G: green foxtail (green foxtail [21]): 5 (Herbicidal rate of 90% or more (almost completely withered)); Herbicidal effect on C: oval-leafed pondweed (grade 0-5) (oval-leafed pondweed): 0 (Herbicidal rate of 5% or less (almost no effect)); herbicidal effect rating, N: redroot pigweed (redroot pigweed [22]): 5 (Herbicidal rate of 90% or more (almost completely withered)); herbicidal effect on N: redroot pigweed (redroot pigweed [23]): 5 (Herbicidal rate of 90% or more (almost completely withered)); herbicidal effect rating, I: wild oat (wild oat [24]): 0 (Herbicidal rate of 5% or less (almost no effect)); herbicidal effect on M: velvetleaf (velvetleaf [25]): 5 (Herbicidal rate of 90% or more (almost completely withered))
